The values below come from US20260217683A1, “PYRIDAZINONE HETEROCYCLIC COMPOUND MYOSIN II INHIBITOR AND USE THEREOF” (Xizang Haisco Pharmaceutical Co., Ltd., priority 2023, published 2026).

Series [1] concerns the target T1, hERG potassium ion channel (Homo sapiens, UniProt Q12809).
T1 construct: expressed in transfected cells
Kind of series: Effect on hERG potassium ion channel (manual patch-clamp, CHO cells). The following applies: CHO cells stably expressing hERG, whole cell patch-clamp; read-out: IC50 of the inhibitory effect on hERG potassium channel current. It is filed as cell-based. An excerpt:
1. Experimental platform: electrophysiological manual patch-clamp system
2. Cell line: Chinese hamster ovary (CH—O) cell lines stably expressing hERG potassium ion channel
3. Experimental method: in CHO (Chinese Hamster Ovary) cells stably expressing hERG potassium channel, whole cell patch-clamp technique was used to record hERG potassium channel current at room temperature. The glass microelectrode was made of a glass electrode blank (BF150-86-10, Sutter) by a puller. The tip resistance after filling the liquid in the electrode was about 2-5 MQ. The glass microelectrode can be connected to the patch-clamp amplifier by inserting the glass microelectrode into an amplifier probe. The clamping voltage and data recording were controlled and recorded by the pClamp 10 software through a computer. The sampling frequency was 10 kHz, and the filtering frequency was 2 kHz. After the whole cell records were obtained, the cells were clamped at −80 mV, and the step voltage that induced the hERG potassium current (IhERG) was depolarized from −80 mV to +20 mV for 2 s, then repolarized to −50 mV, and returned to −80 mV after 1 s. This voltage stimulation was given every 10 s, and the administration process was started after the hERG potassium current was confirmed to be stable (at least 1 minute). The compound was administered for at least 1 minute at each test concentration, and at least 2 cells (n≥2) were tested at each concentration.
4. Data processing: Data analysis processing was carried out by using pClamp 10, GraphPad Prism 5 and Excel software. The inhibition degree of hERG potassium current (peak value of hERG tail current induced at −50 mV) at different compound concentrations was calculated by the following formula:
[formula] • where Inhibition % represents the percentage of inhibition of hERG potassium current by the compound, and I and Io represent the amplitude of hERG potassium current after and before the administration, respectively.
Compound IC50 was calculated using GraphPad Prism 5 software by fitting according to the following equation: […]
Among the equation, X represents the Log value of the tested concentration of the test sample, Y represents the inhibition percentage at the corresponding concentration, and Bottom and Top represent the minimum and maximum inhibition percentage, respectively.
A general note: hERG is a cardiac potassium channel; its block is linked to QT prolongation.

A short description of series [2]: Pharmacokinetic experiment in mouse muscle tissue (tibialis anterior / plasma). The following applies: male, C57, tibialis anterior muscle / plasma, oral, intragastric 10 mg/kg, read-out: Ratio = Tibialis anterior Conc./Plasma Conc. The series is classed as in vivo, C57 mice. The procedure: 1. Experimental animals: Male C57 mice, 22-25 g, 6 mice/compound. Purchased from Chengdu Ddossy Experimental Animals Co., Ltd.
2. Experimental design: On the day of the experiment, C57 mice were randomly grouped according to their body weight. The animals were fasted with water available for 12 to 14 h one day before the administration and were fed 4 h after the administration. Administration was performed as per Table 10.1.

Series [3] in a line: Pharmacokinetic experiment of beagle dogs. It is filed as in vivo. The settings on record: male, dog, plasma, oral, beagles, intragastric 3 mg/kg vs intravenous 1 mg/kg, read-out: bioavailability (F). The procedure: 1. Experimental animals: male beagle dogs, about 8-11 kg, 6 beagle dogs/compound, purchased from Beijing Marshall Biotechnology Co., Ltd.
2. Experimental method: On the day of the test, (6×number of test compounds (n)) beagles were randomly divided into groups according to body weight. The animals were fasted with water available for 12 to 14 h one day before the administration and were fed 4 h after the administration. Administration was performed as per Table 6.
• Before and after the administration, 1 mL of blood was taken from the jugular veins or limb veins, and placed in an EDTAK2 centrifuge tube. Centrifugation was performed at 5000 rpm at 4° C. for 10 min, and plasma was collected. The blood collection time points for the intravenous group and intragastric administration group were: 0 min, 5 min, 15 min, 30 min, 1 h, 2 h, 4 h, 6 h, 8 h, 10 h, 12 h, 24 h, 48 h, 72 h, and 96 h. Before analysis and detection, all samples were stored at −80° C. The samples were analyzed quantitatively by LC-MS/MS.

Each structure is given as a SMILES string.

T1 sequence (Q12809 whole entry): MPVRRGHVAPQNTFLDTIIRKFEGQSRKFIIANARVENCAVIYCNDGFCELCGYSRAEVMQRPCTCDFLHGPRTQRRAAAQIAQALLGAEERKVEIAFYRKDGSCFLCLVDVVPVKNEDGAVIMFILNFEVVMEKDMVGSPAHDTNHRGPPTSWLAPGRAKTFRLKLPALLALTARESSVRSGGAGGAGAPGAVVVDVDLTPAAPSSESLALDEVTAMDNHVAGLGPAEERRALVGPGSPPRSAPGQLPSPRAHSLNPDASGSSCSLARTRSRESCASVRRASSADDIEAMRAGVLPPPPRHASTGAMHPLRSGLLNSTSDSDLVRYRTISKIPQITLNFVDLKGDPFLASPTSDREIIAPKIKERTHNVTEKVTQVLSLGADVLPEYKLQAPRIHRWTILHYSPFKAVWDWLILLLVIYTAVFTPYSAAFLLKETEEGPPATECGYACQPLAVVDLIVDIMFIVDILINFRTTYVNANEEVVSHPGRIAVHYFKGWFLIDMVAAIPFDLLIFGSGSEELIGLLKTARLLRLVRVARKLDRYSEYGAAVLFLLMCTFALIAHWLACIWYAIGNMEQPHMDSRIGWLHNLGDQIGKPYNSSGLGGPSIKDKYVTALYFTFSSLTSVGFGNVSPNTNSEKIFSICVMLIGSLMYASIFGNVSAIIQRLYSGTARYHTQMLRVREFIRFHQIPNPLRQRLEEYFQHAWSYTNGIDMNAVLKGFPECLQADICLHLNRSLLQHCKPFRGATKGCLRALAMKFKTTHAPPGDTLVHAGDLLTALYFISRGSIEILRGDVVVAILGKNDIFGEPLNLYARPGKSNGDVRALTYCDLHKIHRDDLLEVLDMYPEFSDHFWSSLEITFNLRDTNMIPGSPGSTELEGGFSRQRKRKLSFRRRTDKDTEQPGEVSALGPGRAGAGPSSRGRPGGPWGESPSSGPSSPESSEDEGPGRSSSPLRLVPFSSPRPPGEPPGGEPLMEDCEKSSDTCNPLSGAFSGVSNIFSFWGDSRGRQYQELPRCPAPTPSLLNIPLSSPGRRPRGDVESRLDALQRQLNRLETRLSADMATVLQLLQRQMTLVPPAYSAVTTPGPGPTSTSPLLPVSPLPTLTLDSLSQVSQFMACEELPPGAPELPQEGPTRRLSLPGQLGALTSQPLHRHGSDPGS

As a reminder, the IC50 is the concentration that inhibits the measured activity by half. Consider `O=c1ccc(-c2cnc(OCC(F)(F)F)nc2)nn1Cc1ccc2c(c1)CCC2` [Compound 57], for which the IC50 in series [1] is greater than 40 µM.
For `O=C1CCc2ccc(Cn3nc(-c4cnc(OCC(F)(F)F)nc4)ccc3=O)cc21` [Compound 88], in series [2], the Kp at 6 h amounted to 63.5 and the Kp at 24 h was 81.1.
Consider `O=C1CCc2ccc(Cn3nc(-c4cnc(OCC(F)F)nc4)ccc3=O)cc21` [Compound 131], for which the bioavailability in series [3] turned out to be 112%. In series [2], the Kp at 6 h turned out to be 136 and the Kp at 24 h stood at 158.
On to `O=C1CCc2ccc(Cn3nc(-c4cnc(OC5CC(F)(F)C5)nc4)ccc3=O)cc21` [Compound 141], for which, in series [2], the Kp at 6 h was 89.9 and the Kp at 24 h was 116.
With `O=C1CCc2ccc(Cn3nc(-c4cnc(O[C@@H]5CCOC5)nc4)ccc3=O)cc21` [Compound 149], in series [2], the Kp at 6 h came out at 113 and the Kp at 24 h was found to be 171.
As for `O=C1CCc2ccc(Cn3nc(-c4cnc(O[C@H]5CCOC5)nc4)ccc3=O)cc21` [Compound 150], the IC50 in series [1] was greater than 40 µM. In series [2], the Kp at 6 h worked out at 82.2 and the Kp at 24 h was 140.
On to `N#CC1(COc2ncc(-c3ccc(=O)n(Cc4ccc5c(c4)C(=O)CC5)n3)cn2)CC1` [Compound 158], for which the IC50 in series [1] is greater than 40 µM.
On to `O=C1CCc2ccc(Cn3nc(-c4cnc(OC5COCC5(F)F)nc4)ccc3=O)cc21` (stereo not shown) [Compound 164], for which, in series [1], the IC50 is greater than 40 µM.
On the same count and under the same terms, the figure for `O=C1CCc2c(F)cc(Cn3nc(-c4cnc(O[C@H]5CCOC5)nc4)ccc3=O)cc21` [Compound 165] is greater than 40 µM.
